As usually defined, the inhibition is the percentage by which the read-out fell short of the control. Higher therefore signals a response far below the control. A word on the IC50: it is the concentration that inhibits the measured activity by half.

The text below walks through data of paper PMC10226132, “First-in-Class Selective Inhibitors of the Lysine Acetyltransferase KAT8” (Journal of Medicinal Chemistry, 2023).

The target in one assay is T1, KDAC6 (Homo sapiens, UniProt Q9UBN7).
T1 sequence (Q9UBN7 1-1215): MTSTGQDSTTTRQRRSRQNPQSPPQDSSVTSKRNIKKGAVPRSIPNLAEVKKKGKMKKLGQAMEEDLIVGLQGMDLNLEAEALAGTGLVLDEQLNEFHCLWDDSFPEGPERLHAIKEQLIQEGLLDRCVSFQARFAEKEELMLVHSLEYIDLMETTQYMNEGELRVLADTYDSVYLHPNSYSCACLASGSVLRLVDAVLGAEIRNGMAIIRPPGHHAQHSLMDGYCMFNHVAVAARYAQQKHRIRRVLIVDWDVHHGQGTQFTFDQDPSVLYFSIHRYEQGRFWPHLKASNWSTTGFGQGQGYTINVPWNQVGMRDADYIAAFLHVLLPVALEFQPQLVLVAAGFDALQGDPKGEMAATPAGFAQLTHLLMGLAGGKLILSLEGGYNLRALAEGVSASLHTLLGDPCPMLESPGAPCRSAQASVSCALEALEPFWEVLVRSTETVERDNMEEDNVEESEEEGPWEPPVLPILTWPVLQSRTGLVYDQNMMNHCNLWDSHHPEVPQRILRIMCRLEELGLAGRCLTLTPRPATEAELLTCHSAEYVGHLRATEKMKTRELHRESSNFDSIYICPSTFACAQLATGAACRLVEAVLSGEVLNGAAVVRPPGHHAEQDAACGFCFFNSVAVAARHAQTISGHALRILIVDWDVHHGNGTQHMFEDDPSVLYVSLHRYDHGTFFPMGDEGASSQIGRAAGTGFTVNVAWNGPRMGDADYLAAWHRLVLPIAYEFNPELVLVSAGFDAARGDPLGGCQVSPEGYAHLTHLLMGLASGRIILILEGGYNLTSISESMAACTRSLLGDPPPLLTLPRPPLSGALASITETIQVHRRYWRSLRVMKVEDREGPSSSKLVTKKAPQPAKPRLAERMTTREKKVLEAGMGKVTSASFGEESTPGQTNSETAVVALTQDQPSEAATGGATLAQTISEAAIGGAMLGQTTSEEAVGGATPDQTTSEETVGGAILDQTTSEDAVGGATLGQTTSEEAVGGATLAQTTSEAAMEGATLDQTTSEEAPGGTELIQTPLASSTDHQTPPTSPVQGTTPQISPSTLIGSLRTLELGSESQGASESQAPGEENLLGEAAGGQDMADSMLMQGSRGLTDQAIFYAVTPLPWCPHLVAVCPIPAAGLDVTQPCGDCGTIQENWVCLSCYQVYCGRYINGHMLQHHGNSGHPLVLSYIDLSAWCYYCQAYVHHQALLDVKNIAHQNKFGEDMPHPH
As to the kind of experiment: KDAC inhibition assay, KDAC6. Particulars: mean of three technical replicates. It counts as biochemical. Here is the method:
KDAC1, 2, 3 6, and 8 inhibition assays were performed as described previously.[52] Briefly, the relevant human recombinant KDAC was diluted in an assay buffer with the following composition: 150 mM NaCl, 25 mM Tris–HCl (pH 8.0), 2.7 mM KCl, and 1 mM MgCl2; BSA (0.1 mg/mL) was also added in the case of KDAC1. Forty microliters of this solution were added to 10 μL of each inhibitor ([…]) and 50 μL of KDAC Assay substrate (Boc-Lys-(Ac)-AMC, 7–100 μM final concentration, depending on the KDAC isoform), and the resulting solution was mixed. […] After thorough mixing of the resulting solution, the plate was covered and incubated at 37 °C for 25 min and the fluorescence (λemission = 460 nm; λexcitation = 390 nm) was measured on a EnSight Multimode Plate Reader (Perkin Elmer). The shown values are average of three technical replicates ± SD.

The next assay addresses T2, KAT8 (Homo sapiens, UniProt Q9H7Z6).
T2 construct: using the previously purified KAT8 (173–458, 5 nM); 6xHis tag with TEV protease cleavage site (N, cleaved yes); made in house; host or cells: E. coli BL21(DE3)
T2 sequence (Q9H7Z6 173-458): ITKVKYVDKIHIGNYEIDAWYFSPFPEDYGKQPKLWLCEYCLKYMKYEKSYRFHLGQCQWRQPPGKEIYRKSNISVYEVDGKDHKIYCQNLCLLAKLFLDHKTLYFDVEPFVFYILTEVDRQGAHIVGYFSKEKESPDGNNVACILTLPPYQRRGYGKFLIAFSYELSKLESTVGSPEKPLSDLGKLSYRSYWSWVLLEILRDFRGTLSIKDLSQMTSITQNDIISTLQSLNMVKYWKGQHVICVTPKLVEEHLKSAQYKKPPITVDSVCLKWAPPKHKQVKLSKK
As to the kind of experiment: Radioactive KAT8 inhibition assay. The following applies: read-out: IC50 KAT8 (5 nM); enzyme 5 nM; 2-fold serial dilution from 200 μM; NI = no inhibition at 200 μM; mean ± SD of three independent experiments. It counts as biochemical. The essentials:
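Purified KAT8 preincubated 20 min at rt with inhibitor (2-fold dilutions from 200 μM, 1% DMSO), then [3H]Ac-CoA and biotinylated peptide added for 4 h at rt. Product captured on streptavidin scintillant plates and counted. IC50 by nonlinear regression of % inhibition, biological triplicates.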

`CC1=NN(c2ccc(C(=O)O)cc2)C(=O)/C1=C\c1ccc(-c2cc(C)c(C)cc2[N+](=O)[O-])o1` [VII (C646), reference compound]: at KDAC6, the inhibition at 50 µM came to 87.2% and the inhibition at 100 µM worked out at 98.1%. For the same molecule, on KAT8, the half-maximal inhibitory concentration (IC50) is over 200 µM.
At KDAC6, `CC1=NN(c2ccc(C(=O)O)cc2)C(=O)/C1=C\c1ccc[nH]1` [Compound 19, (Z)-4-(4-((1H-Pyrrol-2-yl)methylene)-3-methyl-5-oxo-4,5-dihydro-1H-pyrazol-1-yl)benzoic Acid] came in with an inhibition at 50 µM of 0.4% and an inhibition at 100 µM of 1.3%. For the same molecule, the half-inhibitory concentration (IC50) at KAT8 is 12.1 ± 0.6 µM.
On to `O=C(O)c1ccc(N2N=C(c3ccccc3)/C(=C/c3ccc[nH]3)C2=O)cc1` [Compound 34, (Z)-4-(4-((1H-Pyrrol-2-yl)methylene)-5-oxo-3-phenyl-4,5-dihydro-1H-pyrazol-1-yl)benzoic Acid], for which, on KDAC6, at 50 µM the inhibition was 0.6% and at 100 µM the inhibition was 2.1%. The concentration for half-maximal inhibition (IC50) at KAT8 is 8.1 ± 0.5 µM.
